“And” between values parts separate entries of the source, which are not always exact repeats. Equal values may be shown once. Inconclusive results and toxic doses are left out.
System: CD2F1 mice, intracerebral L1210 leukemia, survival T/C
Test: NCI In Vivo Anticancer Drug Screen. Data for tumor model L1210 Leukemia (intracerebral) in CD2F1 (CDF1) mice
Conditions: higher = longer survival
Method: The antitumor activity of compounds was measured in mice bearing transplantable tumors. Survival or tumor size were measured and the results are expressed as the measurement made in the treated group (T) divided by the measurement made in the vehicle treated control group (C). The tumor model used in this assay is L1210 Leukemia (intracerebral) in CD2F1 (CDF1) mice

[1] = endpoint: median survival time, dose: 16.0 mg/kg/injection, schedule: Q01DX005 (ip), vehicle: saline with Tween-80
[2] = endpoint: median survival time, dose: 64.0 mg/kg/injection, schedule: Q01DX005 (ip), vehicle: saline with Tween-80
[3] = endpoint: median survival time, dose: 128.0 mg/kg/injection, schedule: Q01DX005 (ip), vehicle: saline with Tween-80
[4] = endpoint: median survival time, dose: 32.0 mg/kg/injection, schedule: Q01DX005 (ip), vehicle: saline with Tween-80

For `O=S1(=O)CS(=O)(=O)OCCO1`, the T/C (endpoint: median survival time, dose: 3.13 mg/kg/injection, schedule: Q01DX009 (ip), vehicle: Klucel (hydroxypropylcellulose) (HPC)) was 122 % of control, the T/C (endpoint: median survival time, dose: 12.5 mg/kg/injection, schedule: Q01DX009 (ip), vehicle: Klucel (hydroxypropylcellulose) (HPC)) was 170 % of control and the T/C (endpoint: median survival time, dose: 25.0 mg/kg/injection, schedule: Q01DX009 (ip), vehicle: Klucel (hydroxypropylcellulose) (HPC)) was 182 % of control. For the same molecule, the T/C (endpoint: median survival time, dose: 50.0 mg/kg/injection, schedule: Q01DX009 (ip), vehicle: Klucel (hydroxypropylcellulose) (HPC)) was 200 % of control.
In the case of `COC(=O)c1ccccc1N=NN(C)C`, the T/C (endpoint: mean survival time, dose: 2.5 mg/kg/injection, schedule: Q01DX007 (ip), vehicle: other) is reported as 91 % of control, the T/C (endpoint: mean survival time, dose: 5.0 mg/kg/injection, schedule: Q01DX007 (ip), vehicle: other) is reported as 100 % of control and the T/C (endpoint: mean survival time, dose: 10.0 mg/kg/injection, schedule: Q01DX007 (ip), vehicle: other) is reported as 106 % of control.
For `O=P1(NCCCl)OCCC(OO)N1CCCl` (centres undefined), the T/C (endpoint: median survival time, dose: 40.0 mg/kg/injection, schedule: Q01DX001 (ip), vehicle: Klucel (hydroxypropylcellulose) (HPC)) was 105 % of control, the T/C (endpoint: median survival time, dose: 80.0 mg/kg/injection, schedule: Q01DX001 (ip), vehicle: Klucel (hydroxypropylcellulose) (HPC)) was 111 % of control and the T/C (endpoint: median survival time, dose: 160.0 mg/kg/injection, schedule: Q01DX001 (ip), vehicle: Klucel (hydroxypropylcellulose) (HPC)) was 113 % of control. For the same molecule, the T/C (endpoint: median survival time, dose: 320.0 mg/kg/injection, schedule: Q01DX001 (ip), vehicle: Klucel (hydroxypropylcellulose) (HPC)) was 91 % of control.
For `C#C[C@]1(O)CC[C@H]2[C@@H]3CCc4cc(O)ccc4[C@H]3CC[C@@]21C`, the T/C (endpoint: median survival time, dose: 8.0 mg/kg/injection, schedule: Q01DX009 (ip), vehicle: saline with Tween-80) was 100 % of control and 104 % of control, the T/C (endpoint: median survival time, dose: 16.0 mg/kg/injection, schedule: Q01DX009 (ip), vehicle: saline with Tween-80) was 96 % of control and 98 % of control and the T/C (endpoint: median survival time, dose: 32.0 mg/kg/injection, schedule: Q01DX009 (ip), vehicle: saline with Tween-80) was 97 % of control and 101 % of control. For the same molecule, the T/C (endpoint: median survival time, dose: 64.0 mg/kg/injection, schedule: Q01DX009 (ip), vehicle: saline with Tween-80) was 100 % of control and 101 % of control, the T/C (endpoint: median survival time, dose: 128.0 mg/kg/injection, schedule: Q01DX009 (ip), vehicle: saline with Tween-80) was 93 % of control and 101 % of control and the T/C (endpoint: median survival time, dose: 256.0 mg/kg/injection, schedule: Q01DX009 (ip), vehicle: saline with Tween-80) was 86 % of control and 101 % of control.
With `N=C(N)SCc1c2ccccc2c(CSC(=N)N)c2ccccc12` the T/C (endpoint: mean survival time, dose: 50.0 mg/kg/injection, schedule: Q01DX009 (ip), vehicle: saline) was 103 % of control, the T/C (endpoint: mean survival time, dose: 100.0 mg/kg/injection, schedule: Q01DX009 (ip), vehicle: saline) was 124 % of control and the T/C (endpoint: mean survival time, dose: 200.0 mg/kg/injection, schedule: Q01DX009 (ip), vehicle: saline) was 88 % of control. The T/C (endpoint: median survival time, dose: 2.5 mg/kg/injection, schedule: Q01DX005 (ip), vehicle: Klucel (hydroxypropylcellulose) (HPC)) was 93 % of control and 98 % of control, the T/C (endpoint: median survival time, dose: 5.0 mg/kg/injection, schedule: Q01DX005 (ip), vehicle: Klucel (hydroxypropylcellulose) (HPC)) was 97 % of control and 112 % of control and the T/C (endpoint: median survival time, dose: 10.0 mg/kg/injection, schedule: Q01DX005 (ip), vehicle: Klucel (hydroxypropylcellulose) (HPC)) was 103 % of control and 115 % of control. For the same molecule, the T/C (endpoint: median survival time, dose: 20.0 mg/kg/injection, schedule: Q01DX005 (ip), vehicle: Klucel (hydroxypropylcellulose) (HPC)) was 103 % of control and 112 % of control.
In the case of `C#CCN(C)/N=N/c1nc[nH]c1C(N)=O`, the T/C [1] is reported as 118 % of control, the T/C [2] is reported as 124 % of control and the T/C [3] is reported as 120 % of control.
In the case of `COC(=O)NC1=C(N2CC2)C(=O)C(NC(=O)OC)=C(N2CC2)C1=O`, the T/C (endpoint: median survival time, dose: 0.37 mg/kg/injection, schedule: Q01DX009 (ip), vehicle: saline) is reported as 112 % of control and 117 % of control and the T/C (endpoint: median survival time, dose: 0.75 mg/kg/injection, schedule: Q01DX009 (ip), vehicle: saline) is reported as 120 % of control and 122 % of control.
For `CCN(CC)c1ccc2cc3ccc(=[N+](CC)CC)cc-3oc2c1`, the T/C (endpoint: median survival time, dose: 4.0 mg/kg/injection, schedule: Q01DX005 (ip), vehicle: saline) was 104 % of control, the T/C (endpoint: median survival time, dose: 8.0 mg/kg/injection, schedule: Q01DX005 (ip), vehicle: saline) was 98 % of control and the T/C (endpoint: median survival time, dose: 16.0 mg/kg/injection, schedule: Q01DX005 (ip), vehicle: saline) was 105 % of control and 113 % of control.
With `CN(N=O)C(=O)Nc1c[nH]c(=O)[nH]c1=O` the T/C (endpoint: median survival time, dose: 8.0 mg/kg/injection, schedule: Q01DX005 (ip), vehicle: saline with Tween-80) was 100 % of control, the T/C [1] was 103 % of control and the T/C [4] was 100 % of control. For the same molecule, the T/C [2] was 110 % of control and the T/C [3] was 119 % of control.
With `Nc1nc2c(c(=O)[nH]1)N(C=O)C(CNc1ccc(C(=O)N[C@@H](CCC(=O)O)C(=O)O)cc1)CN2` (some centres undefined) the T/C (endpoint: median survival time, dose: 128.0 mg/kg/injection, schedule: Q01DX005 (ip), vehicle: saline) was 96 % of control and 106 % of control, the T/C (endpoint: median survival time, dose: 256.0 mg/kg/injection, schedule: Q01DX005 (ip), vehicle: saline) was 95 % of control and 108 % of control and the T/C (endpoint: median survival time, dose: 512.0 mg/kg/injection, schedule: Q01DX005 (ip), vehicle: saline) was 92 % of control and 96 % of control.
In the case of `CN(C)CCCN1c2ccccc2Sc2ccc(Cl)cc21`, the T/C (endpoint: median survival time, dose: 50.0 mg/kg/injection, schedule: Q01DX001 (ip), vehicle: water) is reported as 113 % of control.
In the case of `CN(C)N=Nc1ccc([N+](=O)[O-])cc1C(N)=O`, the T/C [4] is reported as 100 % of control, the T/C [2] is reported as 98 % of control and the T/C [3] is reported as 121 % of control.

— PubChem BioAssay AID260 (DTP/NCI, 2004)
